{"source": "patent US20110217293A1", "about": "“Uses of morelloflavone” (priority 2008, published 2011)", "key": {"[1]": {"test_system": "vascular smooth muscle cells", "assay": "Lamellipodium formation assay", "type": "cell-based, mouse", "design": "effect on morphology of vascular smooth muscle cells: dose or concentration left out as unconfirmed", "conditions": "for lamellipodium index: 5% serum, 3 hrs", "method": "Mouse vascular smooth muscle cells, isolated as described (13), were maintained in 231 media (Cascade Biologics, Portland, Oreg.) supplemented with SMGS (Cascade Biologics) in a humidified incubator at 37° C. with 5% CO2. Cells from passages 4-9 were used in all experiments. All experiments were performed in subconfluent, unsynchronized cells growing in SMGS except for the lamellipodium formation assay.\nThe lamellipodium formation assay was performed as described (14). In brief, mouse vascular smooth muscle cells (serum-starved for 24 hrs) were seeded onto fibronectin-coated wells of chamber slides (CultureSlide, BD BioCoat Fibronectin) and incubated with various concentrations of morelloflavone (0, 1, and 10 mM) in the presence or absence of serum for 3 hrs at 37° C. Then, cells were fixed with 4% paraformaldehyde, permeabilized with 0.1% Triton X-100, stained with Alexa Fluor 594-Phallidin (Invitrogen-Molecular Probes) and DRAQ5 (Biostatus, Ltd, Leicestershire, UK), and viewed with the use of a Leica DM6000 confocal microscope. Lamellipodium indices were calculated as the number of lamellipodia divided by the total number of cells counted."}, "[2]": {"test_system": "apoE−/− mice", "assay": "Mouse carotid artery injury assay (morphometry, TUNEL, Ki-67, p-ERK staining)", "type": "in vivo", "conditions": "for External elastic lamina area / Internal elastic lamina area / Luminal area / Medial area / Neointimal area: 0.15% diet", "method": "The carotid artery injury assay was performed as described by Kuhel (16). Male apoE−/− mice were obtained from Jackson Laboratory (Bar Harbor, Me.) and maintained on a 12 hour light/dark cycle. All animal experimentation protocols were performed under institutional guidelines of animal welfare, in accordance with NIH guidelines. Mice were fed either normal rodent chow diet (5001, LabDiet) (n=10) or normal chow diet containing 0.15% morelloflavone (w/w) (n=9). This diet corresponded to 200 mg/kg morelloflavone if a 30 gm mouse consumes 4 grams of chow. Mice were placed on these diets for 7 days before they underwent carotid artery denudation by the insertion of an epoxy resin (Epon) probe as described (16).\nBriefly, the entire length of the left carotid artery was exposed and the distal bifurcation of the carotid artery was looped proximally and ligated distally with a 7-0 suture. A transverse arteriotomy was made between the 7-0 silk sutures and the resin probe was inserted, advanced toward the aortic arch, and withdrawn 5 times. The probe was then removed, the proximal 7-0 suture was ligated, a 6-0 suture was secured, and the incision was closed with 5-0 sterile surgical gut. After surgery, mice were maintained on these diets 9 for 14 days before they were euthanized. After blood was sampled, the arteries of these mice were perfusion-fixed with 10% buffered formalin (pH 7.0) solution at a constant pressure of 100 mm Hg. The entire neck from each mouse was dissected, fixed further in 10% buffered formalin, decalcified, and then embedded in paraffin. Identical whole neck cross sections of […] were made from the distal side of the neck beginning at the point of the distal 7-0 ligature. Whole neck sections were used to evaluate both the injured and the uninjured control vessels on the same section. For each mouse, the 4 levels of serial sections were taken at […] intervals. These sections were stained by Verhoeff-van Gieson (VVG) staining and subjected to morphometric analyses. Images were digitized and captured using a Sony video connected to a personal computer.\nMeasurements were performed at a magnification of 200 using a Scion Image analysis computer program (Frederick, Md.). Data were obtained from the first 2 levels where endothelial denudation occurred. For each artery, the luminal area, area inside the internal elastic lamina (IELA), and the area encircled by external elastic lamina-IELA were measured. The intimal area (IA) was calculated as the IELA minus luminal area. For the determination of serum morelloflavone levels, animal sera were first digested by proteinase K in the presence of 0.01% SDS. Morelloflavone was then extracted into ethyl acetate and lyophilized.\nFor the analyses of intimal cell proliferation, apopotosis and ERK activation, Ki-67, Terminal deoxynucleotidyl transferase (TdT)-deoxyuridine nick-end labeling (TUNEL), and p-ERK staining, respectively, were performed. Ki-67 was detected using a monoclonal rabbit antibody (Clone TEC-3, DAKO North America, Inc., Carpinteria, Calif.) as described (8-9). Terminal deoxynucleotidyl transferase (TdT)-deoxyuridine nick-end labeling (TUNEL) staining (10) was performed using a FragEL™ DNA fragmentation detection kit (Oncogene Research Products, Boston, Mass.) according to the manufacturer's instructions. The Ki-67 and apoptotic indices, defined as the number of cells with DAB-positive nuclei divided by the total number of cells counted and expressed as a percentage, were then calculated. All cells within the intima were counted. Values are expressed as means±SD. Comparisons of parameters between two groups were made with Student's t test. When appropriate, ANOVA was performed to compare multiple groups. A value of P<0.05 was considered statistically significant."}}, "note": "“Also recorded” adds a separate entry of the source."}
{"smiles": "O=C1c2c(O)cc(O)cc2O[C@H](c2ccc(O)cc2)[C@H]1c1c(O)cc(O)c2c(=O)cc(-c3ccc(O)c(O)c3)oc12", "note": "[morelloflavone, 5,7, 4′, 5″, 7″, 3″, 4″-heptahydroxy-[3,8″]-flavonylflavanone]", "values": [{"measurement": "lamellipodium index", "setting": "[1]; 1 mM morelloflavone", "value": "0.05±0.001"}, {"measurement": "lamellipodium index", "setting": "[1]; 10 mM morelloflavone", "value": "0.033±0.006"}, {"measurement": "effect on morphology of vascular smooth muscle cells", "setting": "[1]; absence of serum, any concentration (0, 1)", "value": "did not change the morphology"}, {"measurement": "effect on lamellipodium indices / formation", "setting": "[1]; serum stimulated, 1-10 mM", "value": "significantly decreased lamellipodium indices in a dose-dependent fashion; also recorded: failed to increase lamellipodium indices; also recorded: blocks"}, {"measurement": "External elastic lamina area", "setting": "[2]; Injured carotid artery", "value": "103000 ± 14300", "unit": "µm²"}, {"measurement": "Internal elastic lamina area", "setting": "[2]; Injured carotid artery", "value": "70000 ± 11100", "unit": "µm²"}, {"measurement": "Luminal area", "setting": "[2]; Injured carotid artery", "value": "62100 ± 10700", "unit": "µm²"}, {"measurement": "Medial area", "setting": "[2]; Injured carotid artery", "value": "39300 ± 15100", "unit": "µm²"}, {"measurement": "Neointimal area", "setting": "[2]; Injured carotid artery", "value": "7860 ± 4050", "unit": "µm²"}, {"measurement": "Neointimal area", "setting": "[2]; Injured carotid artery, listed as Morelloflavone", "value": "7860 ± 4050", "unit": "µm²"}, {"measurement": "External elastic lamina area", "setting": "[2]; Uninjured carotid artery", "value": "93100 ± 9140", "unit": "µm²"}, {"measurement": "Internal elastic lamina area", "setting": "[2]; Uninjured carotid artery", "value": "62900 ± 5900", "unit": "µm²"}, {"measurement": "Luminal area", "setting": "[2]; Uninjured carotid artery", "value": "62300 ± 5900", "unit": "µm²"}, {"measurement": "Medial area", "setting": "[2]; Uninjured carotid artery", "value": "30200 ± 14400", "unit": "µm²"}, {"measurement": "Ki-67 indices", "setting": "[2]; neointima of injured carotid artery", "value": "0.17±0.41", "unit": "%"}, {"measurement": "TUNEL indices", "setting": "[2]; neointima of injured carotid artery, index expressed as a percentage", "value": "16.0±4.6"}, {"measurement": "sections with nuclear p-ERK signals in the neointima", "setting": "[2]; one out of 8 sections of treated animals", "value": 12.5, "unit": "%"}, {"measurement": "effect on ERK activation (p-ERK positivity) in the neointima", "setting": "[2]; oral morelloflavone", "value": "decreases ERK activation; also recorded: reduced p-ERK positivity; also recorded: less ERK activation"}, {"measurement": "effect on injury-induced neointimal formation (restenosis)", "setting": "[2]; oral, 0.15% w/w in chow, 7 days before and 14 days after injury, apoE−/− mice", "value": "significantly less neointimal formation; also recorded: reduced neointimal formation; also recorded: significantly blocked injury-induced neointimal formation; also recorded: blocks restenosis"}]}
